Source: patent publication US10442791B2, “DNA-PK inhibitors” (Vertex Pharmaceuticals Incorporated, priority 2012, dated 2019)

The molecules below were run against DNA-PK (Homo sapiens, UniProt P78527) (assay: DNA-PK inhibition assay (radiometric 33P-ATP kinase assay)). Conditions: 100 μM ATP; competitive tight-binding fit.
Format: biochemical
Procedure: Compounds were screened for their ability to inhibit DNA-PK kinase using a standard radiometric assay. Briefly, in this kinase assay the transfer of the terminal ^33P-phosphate in ^33P-ATP to a peptide substrate is interrogated. The assay was carried out in 384-well plates to a final volume of 50 μL per well containing approximately 6 nM DNA-PK, 50 mM HEPES (pH 7.5), 10 mM MgCl2, 25 mM NaCl, 0.01% BSA, 1 mM DTT, 10 μg/mL sheared double-stranded DNA (obtained from Sigma), 0.8 mg/mL DNA-PK peptide ([…] obtained from American Peptide), and 100 μM ATP. Accordingly, compounds of the invention were dissolved in DMSO to make 10 mM initial stock solutions. Serial dilutions in DMSO were then made to obtain the final solutions for the assay. A 0.75 μL aliquot of DMSO or inhibitor in DMSO was added to each well, followed by the addition of ATP substrate solution containing ^33P-ATP (obtained from Perkin Elmer). The reaction was started by the addition of DNA-PK, peptide and ds-DNA. After 45 min. the reaction was quenched with 25 μL of 5% phosphoric acid. The reaction mixture was transferred to MultiScreen HTS 384-well PH plates (obtained from Millipore), allowed to bind for one hour, and washed three times with 1% phosphoric acid. Following the addition of 50 μL of Ultima Gold™ high efficiency scintillant (obtained from Perkin Elmer), the samples were counted in a Packard TopCount NXT Microplate Scintillation and Luminescence Counter (Packard BioScience). The Ki values were calculated using Microsoft Excel Solver macros to fit the data to the kinetic model for competitive tight-binding inhibition.

SMILES	Ki [µM]
COc1ccccc1[C@H](C)CNc1cc(-c2ccc(NCC(O)CO)nc2)ncn1 (single isomer, unassigned) [Compound 200]	< 0.03
COc1ccccc1[C@H](C)CNc1cc(-c2ccnc(N[C@@H](C)CO)c2)ncn1 (single isomer, unassigned) [Compound 213]	< 0.03
CNC(=O)c1ccc([C@H](C)CNc2cc(-c3ccc(NC(C)COC)nc3)ncn2)c(OC)c1 (single isomer, unassigned) [Compound 394]	< 0.03
Cc1ccc(-c2cc(NC[C@@H](C)c3ccnc4c3OCCO4)ncn2)cn1 (single isomer, unassigned) [Compound 443]	< 0.03
CNC(=O)c1ccnc2c([C@H](C)CNc3cc(-c4cnc5c(c4)C(C)OC5)ncn3)cccc12 (single isomer, unassigned) [Compound 1012]	< 0.03
CNC(=O)c1ccnc2c([C@H](C)CNc3cc(-c4ccnc(C(C)OC)c4)ncn3)cccc12 (single isomer, unassigned) [Compound 1039]	< 0.03
COc1ccc(CCNc2cc(-c3ccc4ncccc4c3)ncn2)c(OC)c1 [Compound 28]	< 0.03
COc1ccccc1[C@H](C)CNc1cc(-c2cnc3[nH]ncc3c2)ncn1 [Compound 150]	< 0.03
Cc1ccc(-c2cc(NCC(C)c3cncc4c3OCC4)ncn2)cn1 (centres unmarked) [Compound 418]	< 0.03
CNC(=O)c1ccnc2c([C@H](C)CNc3cc(-c4cnc(OC5CCN(C(=O)OC(C)(C)C)C5)nc4)ncn3)cccc12 (some centres unmarked) [Compound 746]	< 0.03
CNC(=O)c1ccnc2c([C@H](C)CNc3cc(-c4cnc(OCC(F)(F)F)nc4)ncn3)cccc12 [Compound 769]	< 0.03
CNC(=O)c1ccnc2c([C@H](C)CNc3cc(-c4cnc(N5CCN(CC(F)(F)F)CC5)nc4)ncn3)cccc12 [Compound 781]	< 0.03
CNC(=O)c1ccnc2c([C@H](C)CNc3cc(-c4cc(C)nc(C)c4)ncn3)cccc12 [Compound 820]	< 0.03
CNC(=O)c1c(F)cnc2c([C@H](C)CNc3cc(-c4cnc(C(C)C)nc4)ncn3)cccc12 [Compound 859]	< 0.03
CNC(=O)c1ccnc2c([C@H](C)CNc3cc(-c4cnc(OC)c(CO)c4)ncn3)ccc(F)c12 [Compound 883]	< 0.03
CCN(CC)c1cc(-c2cc(NC[C@@H](C)c3cccc4c(C(=O)NC)ccnc34)ncn2)ccn1 [Compound 892]	< 0.03
CNC(=O)c1cc(C(F)(F)F)nc2c([C@H](C)CNc3cc(-c4ccc(C)nc4)ncn3)cccc12 [Compound 985]	< 0.03
CNC(=O)c1ccnc2c([C@H](C)CNc3cc(-c4cnc5c(c4)COC5(C)C)ncn3)cccc12 [Compound 986]	< 0.03
CNC(=O)c1c(F)cnc2c([C@H](C)CNc3cc(-c4cnc5c(c4)COC5(C)C)ncn3)cccc12 [Compound 987]	< 0.03
CNC(=O)c1ccnc2c([C@H](C)CNc3cc(-c4ccc(CC5CCN(C)CC5)nc4)ncn3)cccc12 [Compound 989]	< 0.03
CNC(=O)c1c(F)cnc2c([C@H](C)CNc3cc(-c4ccc(CC5CCN(C)CC5)nc4)ncn3)cccc12 [Compound 991]	< 0.03

SMILES	Ki [µM]
CNC(=O)c1ccnc2c([C@H](C)CNc3cc(-c4ccc(CC5CCN(C)CC5)nc4)ncn3)ccc(F)c12 [Compound 992]	< 0.03
Cc1ccc(-c2cc(NC[C@@H](C)c3cccc4c3ncc3[nH][nH]c(=O)c34)ncn2)cn1 [Compound 993]	< 0.03
Cc1ccc(-c2cc(NC[C@@H](C)c3cccc4c3ncc3[nH]n(C)c(=O)c34)ncn2)cn1 [Compound 994]	< 0.03
Cc1ccc(-c2cc(NC[C@@H](C)c3cccc4c3ncc3c4c(=O)[nH]n3C)ncn2)cn1 [Compound 995]	< 0.03
CNC(=O)c1ccnc2c([C@H](C)CNc3cc(-c4cnc(OC(C)(C)C)nc4)ncn3)cccc12 [Compound 996]	< 0.03
CNC(=O)c1c(F)cnc2c([C@H](C)CNc3cc(-c4cnc(OC(C)(C)C)nc4)ncn3)cccc12 [Compound 997]	< 0.03
CNC(=O)c1ccnc2c([C@H](C)CNc3cc(-c4cnc(OC(C)(C)C)nc4)ncn3)ccc(F)c12 [Compound 998]	< 0.03
CNC(=O)c1c(F)cnc2c([C@H](C)CNc3cc(-c4cnc(COC)nc4)ncn3)cccc12 [Compound 999]	< 0.03
CNC(=O)c1ccnc2c([C@H](C)CNc3cc(-c4cnc(COC)nc4)ncn3)ccc(F)c12 [Compound 1000]	< 0.03
CNC(=O)c1ccnc2c([C@H](C)CNc3cc(-c4cnc(CC5CCN(C)CC5)nc4)ncn3)cccc12 [Compound 1001]	< 0.03
CNC(=O)c1c(F)cnc2c([C@H](C)CNc3cc(-c4cnc(CC5CCN(C)CC5)nc4)ncn3)cccc12 [Compound 1002]	< 0.03
[2H]C([2H])([2H])C([2H])([2H])c1ncc(-c2cc(NC[C@@H](C)c3cccc4c(C(=O)NC)c(F)cnc34)ncn2)cn1 [Compound 1004]	< 0.03
CNC(=O)c1ncnc2c([C@H](C)CNc3cc(-c4ccc(OC)nc4)ncn3)cccc12 [Compound 1005]	< 0.03
CNC(=O)c1ncnc2c([C@H](C)CNc3cc(-c4ccc(F)nc4)ncn3)cccc12 [Compound 1006]	< 0.03
CNC(=O)c1ccnc2c([C@H](C)CNc3cc(-c4ccc(CC5CCN(C(C)=O)CC5)nc4)ncn3)cccc12 [Compound 1007]	< 0.03
CNC(=O)c1c(F)cnc2c([C@H](C)CNc3cc(-c4ccc(CC5CCN(C(C)=O)CC5)nc4)ncn3)cccc12 [Compound 1008]	< 0.03
CNC(=O)c1ncnc2c([C@H](C)CNc3cc(-c4cnc(OC)nc4)ncn3)cccc12 [Compound 1009]	< 0.03
CNC(=O)c1ncnc2c([C@H](C)CNc3cc(-c4ccc(C#N)cc4)ncn3)cccc12 [Compound 1010]	< 0.03
CCOc1ncc(-c2cc(NC[C@@H](C)c3cccc4c(C(=O)NC)ncnc34)ncn2)cn1 [Compound 1011]	< 0.03
CNC(=O)c1ccnc2c([C@H](C)CNc3cc(-c4cnc(COC(C)C)nc4)ncn3)cccc12 [Compound 1014]	< 0.03
CNC(=O)c1c(F)cnc2c([C@H](C)CNc3cc(-c4cnc(COC(C)C)nc4)ncn3)cccc12 [Compound 1015]	< 0.03

SMILES	Ki [µM]
CNC(=O)c1ncnc2c([C@H](C)CNc3cc(-c4ccc(C(=O)NCCC#N)nc4)ncn3)cccc12 [Compound 1016]	< 0.03
CNC(=O)c1ncnc2c([C@H](C)CNc3cc(-c4ccc(C(=O)NCCC#N)cc4)ncn3)cccc12 [Compound 1017]	< 0.03
CNC(=O)c1ccnc2c([C@H](C)CNc3cc(-c4ccc(CC5CCN(C(C)=O)CC5)nc4)ncn3)ccc(F)c12 [Compound 1018]	< 0.03
CNC(=O)c1ccnc2c([C@H](C)CNc3cc(-c4ccc(CC5CCN(CC(F)F)CC5)nc4)ncn3)cccc12 [Compound 1019]	< 0.03
CNC(=O)c1ccnc2c([C@H](C)CNc3cc(-c4ccc(CC5CCN(CC(F)F)CC5)nc4)ncn3)ccc(F)c12 [Compound 1020]	< 0.03
CNC(=O)c1c(F)cnc2c([C@H](C)CNc3cc(-c4ccc(CC5CCN(CC(F)(F)F)CC5)nc4)ncn3)cccc12 [Compound 1021]	< 0.03
CNC(=O)c1ccnc2c([C@H](C)CNc3cc(-c4ccc(CC5CCN(CC(F)(F)F)CC5)nc4)ncn3)ccc(F)c12 [Compound 1022]	< 0.03
CNC(=O)c1ccnc2c([C@H](C)CNc3cc(-c4ccc(CC5CCN(CC(F)(F)F)CC5)nc4)ncn3)cccc12 [Compound 1023]	< 0.03
[2H]c1nc(C)nc([2H])c1-c1cc(NC[C@@H](C)c2cccc3c(C(N)=O)ccnc23)ncn1 [Compound 1027]	< 0.03
CNC(=O)c1ccnc2c([C@H](C)CNc3cc(-c4cnc(NC5CC5)nc4)ncn3)ccc(F)c12 [Compound 1028]	< 0.03
CNC(=O)c1ccnc2c([C@H](C)CNc3cc(-c4cnc(NC5CC5)nc4)ncn3)cccc12 [Compound 1029]	< 0.03
CCOc1ncc(-c2cc(NC[C@@H](C)c3cccc4c(C(=O)NC)c(F)cnc34)ncn2)cn1 [Compound 1030]	< 0.03
CNC(=O)c1ccnc2c([C@H](C)CNc3cc(-c4cnc(OC)nc4)ncn3)ccc(F)c12 [Compound 1031]	< 0.03
CNC(=O)c1c(F)cnc2c([C@H](C)CNc3cc(-c4cnc(NC5CC5)nc4)ncn3)cccc12 [Compound 1032]	< 0.03
CNC(=O)c1c(F)cnc2c([C@H](C)CNc3cc(-c4cnc(NCC(F)(F)F)nc4)ncn3)cccc12 [Compound 1033]	< 0.03
CNC(=O)c1ccnc2c([C@H](C)CNc3cc(-c4cnc(NC5CCN(CC(F)F)CC5)nc4)ncn3)cccc12 [Compound 1034]	< 0.03
CNC(=O)c1c(F)cnc2c([C@H](C)CNc3cc(-c4cnc(OC)nc4)ncn3)cccc12 [Compound 1035]	< 0.03
CNC(=O)c1c(F)cnc2c([C@H](C)CNc3cc(-c4cnc(NC5CCN(CC(F)(F)F)CC5)nc4)ncn3)cccc12 [Compound 1036]	< 0.03
CNC(=O)c1c(F)cnc2c([C@H](C)CNc3cc(-c4cnc(NC5CCN(CC(F)F)CC5)nc4)ncn3)cccc12 [Compound 1037]	< 0.03
CNC(=O)c1ccnc2c([C@H](C)CNc3cc(-c4cnc(NC5CCN(CC(F)F)CC5)nc4)ncn3)ccc(F)c12 [Compound 1038]	< 0.03
